We go through 13 compounds from patent publication US10206937B2, “Boronic acid derivatives and therapeutic uses thereof” (Qpex Biopharma, Inc., priority 2014, dated 2019).

Like-named read-outs stand apart in the source and are kept apart here. A value given as a limit tells only on which side of the number the result lay.

Data set [1] addresses T1, purified class A, C and D enzymes (UniProt Q6XEC0).
T1 construct: rows headed: Ki (OXA-48, NCF); other: purified OXA-48; nitrocefin reporter substrate
Type of data set: biochemical. Conditions: read-out: Ki (OXA-48, NCF); purified OXA-48; nitrocefin reporter substrate.

The target of data set [2] is T2, purified class A, C and D enzymes (UniProt Q9F663).
T2 construct: rows headed: Ki (KPC-2, NCF); other: purified KPC-2; nitrocefin reporter substrate
Type of data set: biochemical. Particulars: read-out: Ki (KPC-2, NCF); purified KPC-2; nitrocefin reporter substrate.

The target in data set [3] is T3, purified class A, C and D enzymes (UniProt Q48434).
T3 construct: rows headed: Ki (CMY-2, NCF); other: purified CMY-2; nitrocefin reporter substrate
Type of data set: biochemical. Particulars: read-out: Ki (CMY-2, NCF); purified CMY-2; nitrocefin reporter substrate.

Data set [4] concerns the target purified class A, C and D enzymes (Escherichia coli, UniProt Q9L5C7). Type of data set: biochemical.
A further data set concerns the target OXA-48 (Klebsiella pneumoniae, UniProt Q6XEC0). In words: Inhibition of purified class D carbapenemase OXA-48 (Ki, carbapenem substrates). Type of data set: biochemical.
For data set [5], the target named is T4, NDM-1 (Klebsiella pneumoniae, UniProt C7C422). Kind of data set: biochemical.
The target in a further data set is T5, VIM-1 (Pseudomonas aeruginosa, UniProt A0A0F7KYQ8).
T5 construct: made in house; host or cells: ECM6711 strain carrying pUCP24-VIM-1 plasmid; culture supernatant used unpurified
In words: biochemical. Particulars: cleavage of nitrocefin (200 uM) by VIM-1 supernatant.

The target in data set [6] is T6, purified class A, C and D enzymes (UniProt P0AD64, L31Q/G234S/E235K, species not given).
T6 construct: Ki (SHV-12, NCF); other: purified SHV-12; nitrocefin reporter substrate
T6 sequence (P0AD64 1-286 L31Q/G234S/E235K): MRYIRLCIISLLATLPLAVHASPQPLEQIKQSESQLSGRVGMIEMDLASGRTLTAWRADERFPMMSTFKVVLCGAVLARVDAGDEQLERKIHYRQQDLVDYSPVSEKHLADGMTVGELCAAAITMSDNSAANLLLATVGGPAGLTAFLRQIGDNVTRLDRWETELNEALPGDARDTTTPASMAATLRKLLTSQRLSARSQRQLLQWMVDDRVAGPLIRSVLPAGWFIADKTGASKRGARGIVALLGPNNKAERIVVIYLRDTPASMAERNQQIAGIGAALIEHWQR
Type of data set: biochemical. Conditions: read-out: Ki (SHV-12, NCF); purified SHV-12; nitrocefin reporter substrate.

For data set [7], the target named is T4, NDM-1. Kind of data set: Inhibition of purified class B carbapenemase NDM-1 (Ki, imipenem substrate). Type of data set: biochemical. Conditions: NDM-1, substrate imipenem; read-out: Ki NDM-1, Imipenem.
The nature of data set [8]: Serum stability of prodrugs: hydrolysis by rat serum. Type of data set: in vitro ADME. Particulars: for Measured Initial Conc. in Serum / Conc. at t = 1 hr / Conc. at t = 3 hr: rat serum, prodrug; for Measured Initial Conc. in Serum: 37 degrees, sampled immediately. How it is done: (§1) Prodrug strategy is one of the ways to achieve or increase oral bioavailability for therapeutic drugs. Compound 62 was used as a template for various ester prodrugs. After a prodrug molecule is absorbed into systemic circulation, it should be hydrolyzed in the blood in order to release the active form. Hydrolysis of several prodrugs by rat and human serum were evaluated.
(§2) For all stability experiments the test compounds were treated with rat or human serum in Eppendorf tubes. Typically, 980 μl of serum was prewarmed at 37 degrees for 2 minutes and then 20 μl of a compound (at 1 mg/ml, 50×) was added to it to get a final concentration of 20 μg/ml and immediately mixed. Duplicate samples were tested. […] After vortexing for 30 seconds, the tube was centrifuged in a microcentrifuge for 10 minutes at 15K rpm. Next, 100 μl of the supernatant was combined with 600 μl of water and injected on LC-MS using 0.1% formic acid in water for mobile phase A and 0.1% formic acid in methanol for mobile phase B on an ACE 5 C18 2.1×100 mm column with a 10 μL it injection. The flow rate and gradient were adjusted as needed to give the desired resolution and run time. The pH of the mobile phase was adjusted if needed to improve the chromatography.
(§3) The time course of both the disappearance of a prodrug and the appearance of the active form of that prodrug is presented in Table 13 and Table 14. The active metabolites for all of the listed prodrugs are corresponding parent drugs

Data set [9] in a line: Serum stability of prodrugs: hydrolysis by human serum. Type of data set: in vitro ADME. Particulars: prodrug; for Measured Initial Conc. in Serum: 37 degrees, sampled immediately. How it is done:
as §1, §2, §3

The mark [10] stands for this setting: purified OXA-48, substrate biapenem, read-out: Ki OXA-48, Biapenem.
[11] abbreviates: cleavage of imipenem (100 uM) by NDM-1, read-out: Ki, Imipenem.
[12] abbreviates: cleavage of tebipenem (100 uM) by NDM-1, read-out: Ki, Tebipenem.
[13] abbreviates: cleavage of biapenem (100 uM) by NDM-1, read-out: Ki, Biapenem.

OXA-48, sequence (Q6XEC0 23-265, looked up): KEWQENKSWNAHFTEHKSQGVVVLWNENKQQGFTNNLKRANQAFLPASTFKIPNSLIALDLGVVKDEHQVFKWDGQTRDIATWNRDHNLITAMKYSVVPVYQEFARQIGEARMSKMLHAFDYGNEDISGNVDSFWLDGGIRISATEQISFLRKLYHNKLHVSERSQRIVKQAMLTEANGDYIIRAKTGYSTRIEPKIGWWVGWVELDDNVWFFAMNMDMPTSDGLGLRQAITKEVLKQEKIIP
T4 sequence (C7C422 29-270, looked up, species assumed): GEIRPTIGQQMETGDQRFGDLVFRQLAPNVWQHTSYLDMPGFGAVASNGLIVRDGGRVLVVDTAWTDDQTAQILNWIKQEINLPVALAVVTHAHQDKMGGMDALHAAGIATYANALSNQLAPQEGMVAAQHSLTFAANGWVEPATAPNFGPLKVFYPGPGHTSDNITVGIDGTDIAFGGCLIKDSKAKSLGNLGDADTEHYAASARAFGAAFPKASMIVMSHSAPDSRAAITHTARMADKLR
purified class A, C and D enzymes (Escherichia coli, UniProt Q9L5C7), sequence (Q9L5C7 entry or part of it): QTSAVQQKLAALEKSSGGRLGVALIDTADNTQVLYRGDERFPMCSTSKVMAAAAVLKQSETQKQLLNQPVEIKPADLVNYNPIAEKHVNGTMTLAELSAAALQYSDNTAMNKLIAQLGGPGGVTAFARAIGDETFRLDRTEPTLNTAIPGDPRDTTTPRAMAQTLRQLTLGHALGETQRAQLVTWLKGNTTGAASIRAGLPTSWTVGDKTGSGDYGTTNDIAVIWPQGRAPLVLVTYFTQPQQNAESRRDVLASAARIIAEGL

As for `O=C(O)[C@H]1/C(=C/CO)O[C@@H]2CC(=O)N21` [Clavulanic acid], the Ki in [1], in [2] and in data set [3] was greater than 1000 nM in each case. Also, the “Ki (CTX-M-14, NCF)” value in [4] is “X (key: X: Less than 0.1 μM; Y: 0.1 μM to 1 μM; Z: Greater than 1 μM)”.

`O=C(O)c1cccc2c1OB(O)[C@@H](Sc1nnc[nH]1)C2` [Compound 2, (R)-3-(4H-1,2,4-triazol-3-ylthio)-2-hydroxy-3,4-dihydro-2H-benzo[e][1,2]oxaborinine-8-carboxylic acid]: the Ki at OXA-48 (setting [10]) was 10 to 100 nM; on NDM-1 [5] (setting [11]), less than 10 nM; at NDM-1 [5] (setting [12]), 10 to 100 nM; in data set [1] it was less than 100 nM; in data set [6], less than 100 nM; in data set [2], 100 to 1000 nM. The Ki in data set [3] was 100 to 1000 nM; at NDM-1 [7], less than 10 nM. In addition, the half-inhibitory concentration (IC50) on VIM-1 is less than 1000 nM.

For the compound `NC(=O)CS[C@H]1Cc2cccc(C(=O)O)c2OB1O` [Compound 3, (R)-3-(2-amino-2-oxoethylthio)-2-hydroxy-3,4-dihydro-2H-benzo[e][1,2]oxaborinine-8-carboxylic acid], the Ki at OXA-48 (setting [10]) was less than 10 nM; at NDM-1 [5] (setting [13]) it was greater than 100 nM; on NDM-1 [5] (setting [11]), greater than 100 nM; at NDM-1 [5] (setting [12]), greater than 100 nM; in [1], less than 100 nM; in data set [6], 100 to 1000 nM. In addition, the Ki in [2] is less than 100 nM; in data set [3] it was less than 100 nM; on NDM-1 [7] it was greater than 100 nM.

With `Nc1nnc(S[C@H]2Cc3cccc(C(=O)O)c3OB2O)s1` [Compound 4, (R)-3-(5-amino-1,3,4-thiadiazol-2-ylthio)-2-hydroxy-3,4-dihydro-2H-benzo[e][1,2]oxaborinine-8-carboxylic acid], the Ki was less than 10 nM on OXA-48 (cleavage of biapenem by OXA-48, read-out: Ki, Biapenem); 10 to 100 nM at OXA-48 (cleavage of doripenem by OXA-48, read-out: Ki, Doripenem); less than 10 nM at OXA-48 (cleavage of imipenem by OXA-48, read-out: Ki, Imipenem); greater than 100 nM at OXA-48 (cleavage of meropenem by OXA-48, read-out: Ki, Meropenem); 10 to 100 nM on OXA-48 (cleavage of tebipenem by OXA-48, read-out: Ki, Tebipenem); less than 10 nM at OXA-48 (setting [10]). Moreover, the Ki on NDM-1 [5] (setting [13]) was less than 10 nM; at NDM-1 [5] (setting [11]), less than 10 nM; at NDM-1 [5] (setting [12]) it was less than 10 nM; in data set [1], less than 100 nM; in data set [6], less than 100 nM; in data set [3] it was less than 100 nM. Moreover, the Ki on NDM-1 [7] was less than 10 nM. The compound further had an IC50 on VIM-1 of less than 1000 nM.

Consider `CC(=O)Nc1nnc(S[C@H]2Cc3cccc(C(=O)O)c3OB2O)s1` [Compound 7, (R)-3-(5-acetamido-1,3,4-thiadiazol-2-ylthio)-2-hydroxy-3,4-dihydro-2H-benzo[e][1,2]oxaborinine-8-carboxylic acid], for which the Ki on OXA-48 (setting [10]) is less than 10 nM; on NDM-1 [5] (setting [11]), 10 to 100 nM; in data set [1], less than 100 nM; in data set [6], less than 100 nM; in data set [3] it was less than 100 nM; on NDM-1 [7], 10 to 100 nM. Also, the IC50 against VIM-1 was less than 1000 nM.

Take `NC(=O)CCS[C@H]1Cc2cccc(C(=O)O)c2OB1O` [Compound 9, (R)-3-(3-amino-3-oxopropylthio)-2-hydroxy-3,4-dihydro-2H-benzo[e][1,2]oxaborinine-8-carboxylic acid]: the Ki on OXA-48 (setting [10]) is 10 to 100 nM; at NDM-1 [5] (setting [11]) it was greater than 100 nM; in [1] it was less than 100 nM; in [6], 100 to 1000 nM; in data set [2], less than 100 nM; in data set [3] it was less than 100 nM. The Ki on NDM-1 [7] was greater than 100 nM. The same compound yielded an IC50 against VIM-1 of less than 1000 nM.

On to `O=C(O)c1cccc2c1OB(O)[C@@H](Sc1nccs1)C2` [Compound 11, (R)-2-hydroxy-3-(thiazol-2-ylthio)-3,4-dihydro-2H-benzo[e][1,2]oxaborinine-8-carboxylic acid], for which the Ki at NDM-1 [5] (setting [11]) was greater than 100 nM; in data set [1], less than 100 nM; in data set [6], less than 100 nM; in [3], less than 100 nM; on NDM-1 [7] it was greater than 100 nM. For the same compound, the IC50 at VIM-1 was no less than 1000 nM.

Regarding `Cn1cnnc1S[C@H]1Cc2cccc(C(=O)O)c2OB1O` [Compound 15, (R)-2-hydroxy-3-(4-methyl-4H-1,2,4-triazol-3-ylthio)-3,4-dihydro-2H-benzo[e][1,2]oxaborinine-8-carboxylic acid], the Ki on OXA-48 (setting [10]) is less than 10 nM; at NDM-1 [5] (setting [13]), 10 to 100 nM; at NDM-1 [5] (setting [11]) it was 10 to 100 nM; at NDM-1 [5] (cleavage of meropenem (100 uM) by NDM-1, read-out: Ki, Meropenem), 10 to 100 nM; in data set [1], less than 100 nM; in data set [6], less than 100 nM. The results for the Ki in [2] and in [3] were 100 to 1000 nM and less than 100 nM, respectively. For the same compound, on VIM-1, the IC50 was less than 1000 nM.

For `NC(=O)CC1Cc2cccc(C(=O)O)c2OB1O` (centres unmarked) [Compound 22, 3-(2-amino-2-oxoethyl)-2-hydroxy-3,4-dihydro-2H-benzo[e][1,2]oxaborinine-8-carboxylic acid], the Ki in data set [1], in [6], in data set [2] and in data set [3] was less than 100 nM in each case.

As to `COc1ccc2c(c1C(=O)OCOC(C)=O)OB(O)[C@@H](Sc1nncs1)C2` [Compound 123, acetoxymethyl (3R)-2-hydroxy-7-methoxy-3-(1,3,4-thiadiazol-2-ylsulfanyl)-3,4-dihydro-1,2-benzoxaborinine-8-carboxylate], in data set [8], the “Measured Initial Conc. in Serum” value is 51.5 µM, the “Conc. at t = 1 hr” value is 26.1 µM and the “Conc. at t = 3 hr” value stood at 8.6 µM. For the same compound, the “conversion of prodrug to active metabolite” value in [8] (serum species not given, 4 hour experiment) was “completely converted to active metabolite”. Further, in data set [9], the “Measured Initial Conc. in Serum” value was found to be 51.7 µM, the “Conc. at t = 1 hr” value worked out at 43.4 µM and the “Conc. at t = 3 hr” value was 30.7 µM.

As to `CCOC(=O)OCOC(=O)c1c(OC)ccc2c1OB(O)[C@@H](Sc1nncs1)C2` [Compound 124, ethoxycarbonyloxymethyl (3R)-2-hydroxy-7-methoxy-3-(1,3,4-thiadiazol-2-ylsulfanyl)-3,4-dihydro-1,2-benzoxaborinine-8-carboxylate], in data set [8], the “Measured Initial Conc. in Serum” value came out at 44.9 µM, the “Conc. at t = 1 hr” value was found to be 36.8 µM and the “Conc. at t = 3 hr” value came to 41.2 µM. In addition, in data set [9], the “Measured Initial Conc. in Serum” value worked out at 48.3 µM, the “Conc. at t = 1 hr” value was determined as 38.3 µM and the “Conc. at t = 3 hr” value was determined as 45.9 µM.

For the compound `COc1ccc2c(c1C(=O)OCOC(=O)C(C)(C)C)OB(O)[C@@H](Sc1nncs1)C2` [Compound 125, 2,2-dimethylpropanoyloxymethyl (3R)-2-hydroxy-7-methoxy-3-(1,3,4-thiadiazol-2-ylsulfanyl)-3,4-dihydro-1,2-benzoxaborinine-8-carboxylate], in data set [8], the “Measured Initial Conc. in Serum” value turned out to be 37.6 µM, the “Conc. at t = 1 hr” value was found to be 28.5 µM and the “Conc. at t = 3 hr” value was 48.2 µM. Moreover, in data set [9], the “Measured Initial Conc. in Serum” value is 41.8 µM, the “Conc. at t = 1 hr” value was 27.4 µM and the “Conc. at t = 3 hr” value is 41.4 µM.

Take `C[C@]1(Cn2ccnn2)[C@H](C(=O)O)N2C(=O)C[C@H]2S1(=O)=O` [Tazobactam]: the figures for the Ki in data set [1], in [2] and in data set [3] were 100 to 1000 nM, greater than 1000 nM and 100 to 1000 nM, respectively.
